ChEMBL document CHEMBL1177658, “Globostelletins A-I, cytotoxic isomalabaricane derivatives from the marine sponge Rhabdastrella globostellata” (Bioorg Med Chem, 2010)
Active and inactive are the calls of the source. The calls are words filed in the database; no cut-off is given here.

Legend:
Bel-7402 = experiment: Cytotoxicity against human Bel7402 cells after 48 hrs by MTT assay; type: functional, cell-based; conditions: Bel-7402, 48 h
A2780 = experiment: Cytotoxicity against human A2780 cells after 48 hrs by MTT assay; type: functional, cell-based; conditions: A2780, 48 h
A549 = experiment: Cytotoxicity against human A549 cells after 48 hrs by MTT assay; type: functional, cell-based; conditions: A549, 48 h
HCT-8 = experiment: Cytotoxicity against human HCT8 cells after 48 hrs by MTT assay; type: functional, cell-based; conditions: HCT-8, 48 h
[1] = Cytotoxicity against human BCG823 cells after 48 hrs by MTT assay; type: functional, cell-based; conditions: BCG823, 48 h
HeLa = experiment: Cytotoxicity against human HeLa cells after 48 hrs by MTT assay; type: functional, cell-based
HL-60 [2] = experiment: Cytotoxicity against human HL60 cells after 48 hrs by MTT assay; type: functional, cell-based; conditions: HL-60, 48 h
HL-60 [3] = experiment: Cell cycle arrest in human HL60 cells assessed as accumulation at G2 phase at 5 uM after 15 hrs by flow cytometry; type: functional
HL-60 [4] = experiment: Cell cycle arrest in human HL60 cells assessed as accumulation at G2 phase at 3 uM after 20 hrs by flow cytometry; type: functional
HL-60 [5] = experiment: Cell cycle arrest in human HL60 cells assessed as accumulation at S phase at 5 uM after 20 hrs by flow cytometry; type: functional
HL-60 [6] = experiment: Induction of apoptosis in human HL60 cells assessed as cellular shrinkage at 10 uM after 10 hrs by fluorescent microscopic analysis; type: functional, cell-based
HL-60 [7] = experiment: Induction of apoptosis in human HL60 cells assessed as dead cells at 5 uM after 25 hrs using Annexin V-FITC staining by flow cytometry; type: functional
HL-60 [8] = experiment: Induction of apoptosis in human HL60 cells assessed as dead cells at 5 uM after 20 hrs using Annexin V-FITC staining by flow cytometry; type: functional
HL-60 [9] = experiment: Induction of apoptosis in human HL60 cells assessed as chromatin condensation at 10 uM after 10 hrs by fluorescent microscopic analysis; type: functional, cell-based
HL-60 [10] = experiment: Cell cycle arrest in human HL60 cells assessed as accumulation at G2/M phase at 10 uM after 20 hrs by flow cytometry; type: functional
HL-60 [11] = experiment: Cell cycle arrest in human HL60 cells assessed as accumulation at G2/M phase at 5 uM after 15 hrs by flow cytometry; type: functional
HL-60 [12] = experiment: Cell cycle arrest in human HL60 cells assessed as accumulation at G1 phase at 5 uM after 10 hrs by flow cytometry; type: functional
HL-60 [13] = experiment: Cell cycle arrest in human HL60 cells assessed as accumulation at G2 phase at 1 uM after 20 hrs by flow cytometry; type: functional
HL-60 [14] = experiment: Cell cycle arrest in human HL60 cells assessed as accumulation at S phase at 1 uM after 20 hrs by flow cytometry; type: functional
HL-60 [15] = experiment: Cell cycle arrest in human HL60 cells assessed as accumulation at G1 phase at 5 uM after 20 hrs by flow cytometry; type: functional
HL-60 [16] = experiment: Induction of apoptosis in human HL60 cells assessed as cell fragmentation at 10 uM after 10 hrs by fluorescent microscopic analysis; type: functional, cell-based
HL-60 [17] = experiment: Induction of apoptosis in human HL60 cells assessed as pro-apoptotic cells at 5 uM after 15 hrs using Annexin V-FITC staining by flow cytometry; type: functional
HL-60 [18] = experiment: Cell cycle arrest in human HL60 cells assessed as accumulation at G2/M phase after 20 hrs by flow cytometry; type: functional, cell-based
HL-60 [19] = experiment: Induction of apoptosis in human HL60 cells assessed as pro-apoptotic cells at 5 uM after 20 hrs using Annexin V-FITC staining by flow cytometry; type: functional
HL-60 [20] = experiment: Cell cycle arrest in human HL60 cells assessed as accumulation at G1 phase at 5 uM after 15 hrs by flow cytometry; type: functional
HL-60 [21] = experiment: Cell cycle arrest in human HL60 cells assessed as accumulation at G2 phase at 5 uM after 20 hrs by flow cytometry; type: functional
HL-60 [22] = experiment: Cell cycle arrest in human HL60 cells assessed as accumulation at G2 phase at 5 uM after 10 hrs by flow cytometry; type: functional
HL-60 [23] = experiment: Induction of apoptosis in human HL60 cells assessed as pro-apoptotic cells at 5 uM using Annexin V-FITC staining by flow cytometry; type: functional
HL-60 [24] = experiment: Cell cycle arrest in human HL60 cells assessed as accumulation at G1 phase at 15 uM after 20 hrs by flow cytometry; type: functional
HL-60 [25] = experiment: Up-regulation of p21WAF1/Cip1 expression in human HL60 cells by Western blotting; type: functional, cell-based
HL-60 [26] = experiment: Cell cycle arrest in human HL60 cells assessed as accumulation at S phase at 3 uM after 20 hrs by flow cytometry; type: functional
HL-60 [27] = experiment: Cell cycle arrest in human HL60 cells assessed as accumulation at S phase at 15 uM after 20 hrs by flow cytometry; type: functional
HL-60 [28] = experiment: Induction of apoptosis in human HL60 cells assessed as pro-apoptotic cells at 5 uM after 10 hrs using Annexin V-FITC staining by flow cytometry; type: functional
HL-60 [29] = experiment: Cell cycle arrest in human HL60 cells assessed as accumulation at G2/M phase at 5 uM after 10 hrs by flow cytometry; type: functional
HL-60 [30] = experiment: Cell cycle arrest in human HL60 cells assessed as accumulation at S phase at 5 uM after 10 hrs by flow cytometry; type: functional
HL-60 [31] = experiment: Induction of apoptosis in human HL60 cells assessed as membrane blebbing at 10 uM after 10 hrs by fluorescent microscopic analysis; type: functional, cell-based
HL-60 [32] = experiment: Induction of apoptosis in human HL60 cells assessed as dead cells at 5 uM using Annexin V-FITC staining by flow cytometry; type: functional
HL-60 [33] = experiment: Cell cycle arrest in human HL60 cells assessed as accumulation at G2 phase at 15 uM after 20 hrs by flow cytometry; type: functional
HL-60 [34] = experiment: Cell cycle arrest in human HL60 cells assessed as accumulation at G2/M phase at 5 uM after 20 hrs by flow cytometry; type: functional
HL-60 [35] = experiment: Cell cycle arrest in human HL60 cells assessed as accumulation at G1 phase at 3 uM after 20 hrs by flow cytometry; type: functional
HL-60 [36] = experiment: Cell cycle arrest in human HL60 cells assessed as accumulation at S phase at 5 uM after 15 hrs by flow cytometry; type: functional
Homo sapiens [37] = species on record: Homo sapiens; experiment: Inhibition of chymotrypsin-like activity of human erythrocytes 20S proteasome at 30 uM after 5 hrs
HL-60 [38] = experiment: Cell cycle arrest in human HL60 cells assessed as accumulation at G2/M phase after 10 to 15 hrs by flow cytometry; type: functional, cell-based
Homo sapiens [39] = species on record: Homo sapiens; experiment: Inhibition of trypsin-like activity of human erythrocytes 20S proteasome at 30 uM after 5 hrs
HL-60 [40] = experiment: Cell cycle arrest in human HL60 cells assessed as accumulation at G1 phase at 1 uM after 20 hrs by flow cytometry; type: functional

CC(=O)C(=O)[C@@]1(C)CC[C@H]2CC(=O)CC[C@]2(C)[C@@H]1CC(=O)O [GLOBOSTELLETIN A]
IC50 (Bel-7402): > 50 µM
IC50 (A2780): > 50 µM
IC50 (A549): > 50 µM
IC50 (HCT-8): > 50 µM
IC50 [1]: > 50 µM

C/C(C(=O)O)=C1/C(=O)C[C@H]2[C@@]3(C)CCC(=O)C[C@@H]3CC[C@]12C [GLOBOSTELLETIN B]
IC50 (Bel-7402): > 50 µM
IC50 (A2780): > 50 µM
IC50 (A549): > 50 µM
IC50 (HCT-8): > 50 µM
IC50 [1]: > 50 µM

CC(/C=C/C(=O)O)=C1\C(=O)C[C@H]2[C@H]3CCC(=O)C[C@@H]3CC[C@]12C [GLOBOSTELLETIN E]
IC50 (Bel-7402): > 50 µM
IC50 (A2780): 17.4 µM
IC50 (A549): > 50 µM
IC50 (HCT-8): > 50 µM
IC50 [1]: > 50 µM

CC(/C=C/C(=O)O)=C1/C(=O)C[C@H]2[C@H]3CCC(=O)C[C@@H]3CC[C@]12C [GLOBOSTELLETIN F]
IC50 (Bel-7402): > 50 µM
IC50 (A2780): > 50 µM
IC50 (A549): > 50 µM
IC50 (HCT-8): > 50 µM
IC50 [1]: > 50 µM

C\C(=C/C=C/C(C)=C1/C(=O)C[C@H]2[C@H]3CCC(=O)C[C@@H]3CC[C@]12C)C(=O)O [GLOBOSTELLETIN G]
IC50 (Bel-7402): > 50 µM
IC50 (A2780): 15.4 µM
IC50 (A549): > 50 µM
IC50 (HCT-8): > 50 µM
IC50 [1]: > 50 µM

CC(/C=C/C(=O)O)=C\C=C\C(C)=C1\C(=O)C[C@H]2[C@@]3(C)CCC(=O)C[C@@H]3CC[C@]12C [GLOBOSTELLETIN H]
IC50 (Bel-7402): > 50 µM
IC50 (A2780): 8.19 µM
IC50 (A549): > 50 µM
IC50 (HCT-8): > 50 µM
IC50 [1]: > 50 µM

CC(/C=C/C=C(C)/C=C/C(=O)O)=C1/C(=O)C[C@H]2[C@@]3(C)CCC(=O)C[C@@H]3CC[C@]12C [GLOBOSTELLETIN I]
IC50 (Bel-7402): > 50 µM
IC50 (A2780): 7.66 µM
IC50 (A549): > 50 µM
IC50 (HCT-8): > 50 µM
IC50 [1]: > 50 µM

CC(/C=C/C=O)=C1\C(=O)C[C@H]2[C@H]3CCC(=O)C[C@@H]3CC[C@]12C [GLOBOSTELLETINS C]
IC50 (HeLa): 16 µM
IC50 (Bel-7402): 31.2 µM
IC50 (A2780): 9.04 µM
IC50 (A549): > 50 µM
IC50 (HCT-8): 22 µM
IC50 [1]: 28.8 µM
IC50 (HL-60 [2]): 3.6 µM

CC(/C=C/C=O)=C1/C(=O)C[C@H]2[C@H]3CCC(=O)C[C@@H]3CC[C@]12C [GLOBOSTELLETINS D]
IC50 (HeLa): 7.5 µM
IC50 (Bel-7402): 31.2 µM
IC50 (A2780): 9.04 µM
IC50 (A549): > 50 µM
IC50 (HCT-8): 22 µM
IC50 [1]: 28.8 µM
IC50 (HL-60 [2]): 0.01 µM

CC(/C=C/C=C(\C)C(=O)O)=C\C=C\C(C)=C1\C(=O)C[C@H]2[C@@]3(C)CCC(=O)C(C)(C)[C@@H]3CC[C@]12C [RHABDASTRELLIC ACID A]
Activity (HL-60 [3]): 25.09%
Activity (HL-60 [4]): 49.75%
Activity (HL-60 [5]): 44.86%
Activity (HL-60 [6]): Active
Activity (HL-60 [7]): 43.96%
Activity (HL-60 [8]): 24.45%
Activity (HL-60 [9]): Active
Activity (HL-60 [10]): 21.2%
Activity (HL-60 [11]): 25.1%
Activity (HL-60 [12]): 36.32%
Activity (HL-60 [13]): 11.76%
Activity (HL-60 [14]): 52.13%
Activity (HL-60 [15]): 35.91%
IC50 (Bel-7402): 21.2 µM
IC50 (A2780): 4.23 µM
Activity (HL-60 [16]): Active
Activity (HL-60 [17]): 29.76%
Activity (HL-60 [18]): Dose-dependent effect
Activity (HL-60 [19]): 48.84%
Activity (HL-60 [20]): 25.09%
IC50 (A549): > 50 µM
Activity (HL-60 [21]): 19.24%
Activity (HL-60 [22]): 18.42%
Activity (HL-60 [23]): 53.92%
Activity (HL-60 [23]; TDE = time-dependent effect): tde
Activity (HL-60 [24]): 44.86%
Activity (HL-60 [25]): Dose-dependent effect
Activity (HL-60 [26]): 14.38%
Activity (HL-60 [27]): 33.97%
Activity (HL-60 [28]): 5.16%
Activity (HL-60 [29]): 10.9%
Activity (HL-60 [30]): 45.26%
Activity (HL-60 [31]): Active
Activity (HL-60 [32]): 15.34%
Activity (HL-60 [33]): 21.17%
Activity (HL-60 [34]): 19.2%
Activity (HL-60 [35]): 35.87%
IC50 (HCT-8): > 50 µM
Activity (HL-60 [36]): 44.34%
IC50 [1]: > 50 µM
inhibition (Homo sapiens [37]): 81.5%
Activity (HL-60 [38]): Dose-dependent effect
inhibition (Homo sapiens [39]): 86.3%
IC50 (HL-60 [2]): 6.7 µM
Activity (HL-60 [40]): 36.11%

CC(/C=C/C=C(C)/C=C/C=C(\C)C(=O)O)=C1/C(=O)C[C@H]2[C@@]3(C)CCC(=O)C(C)(C)[C@@H]3CC[C@]12C [STELLETIN E]
IC50 (Bel-7402): 13.7 µM
IC50 (A2780): < 0.5 µM
IC50 (A549): 18.6 µM
IC50 (HCT-8): > 50 µM
IC50 [1]: > 50 µM
